# Tests used:
# LacS [1] = biological target: T1, LacS (Saccharolobus solfataricus, UniProt P22498); experiment: inhibition of oNPG hydrolysis, A420; format: biochemical; set-up: recombinant full-length LacS; purified for in vitro assay; lacS also integrated in E. coli BW25113 (BWLacS); details: buffer Z, oNPG substrate, 37°C, 10 min
# T1 sequence (P22498 1-489): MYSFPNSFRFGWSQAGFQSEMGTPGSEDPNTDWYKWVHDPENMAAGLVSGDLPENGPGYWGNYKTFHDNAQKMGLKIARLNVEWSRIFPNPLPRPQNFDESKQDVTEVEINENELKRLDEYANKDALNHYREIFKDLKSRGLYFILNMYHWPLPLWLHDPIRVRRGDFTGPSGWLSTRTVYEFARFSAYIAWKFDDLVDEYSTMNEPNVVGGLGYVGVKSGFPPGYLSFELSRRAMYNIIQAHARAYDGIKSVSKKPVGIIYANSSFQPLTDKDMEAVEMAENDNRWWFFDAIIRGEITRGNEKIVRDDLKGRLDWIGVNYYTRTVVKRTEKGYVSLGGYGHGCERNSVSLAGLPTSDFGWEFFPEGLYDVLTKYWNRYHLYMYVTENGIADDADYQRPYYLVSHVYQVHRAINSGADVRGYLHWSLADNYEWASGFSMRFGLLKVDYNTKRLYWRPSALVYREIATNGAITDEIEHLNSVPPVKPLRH
# LacS [2] = biological target: T1, LacS; experiment: blue-white colony assay on LB agar, E. coli BWLacS; format: cell-based; set-up: lacS also integrated in E. coli BW25113 (BWLacS); details: 40 μg/mL X-GAL, 1 mM L-arabinose
compound,measurement,setting,value
OC[C@H]1NC[C@H](O)[C@@H](O)[C@@H]1O [1-DNJ],LacS inhibition rate,LacS [1],1-DNJ was found able to inhibit LacS on its o-nitrophenyl-β-D-galactopyranoside (oNPG) hydrolysis activity
OC[C@H]1NC(O)[C@@H](O)[C@@H](O)[C@@H]1O (stereo partly drawn) [MJ],LacS inhibition rate,"LacS [1]; unstable MJ tested as reaction mixture of purified GutB1 with ADM and NAD+, not isolated",MJ was also found to inhibit the activity of LacS (Figure S3)
OC[C@H]1O[C@@H](Oc2c[nH]c3ccc(Br)c(Cl)c23)[C@H](O)[C@@H](O)[C@H]1O [X-GAL],"blue-white colony assay on LB agar, E. coli BWLacS",LacS [2],inhibitory effect of 1-DNJ on the LacS activity toward 5-bromo-4-chloro-3-indolyl β-D-galactopyranoside (X-GAL)
